Usually solubility stands for the dissolved amount per volume that the medium holds.

The record followed here is patent publication US10828265B2, “Formulations of propranolol and analogs as an amorphous melt or ionic liquid for transdermal drug delivery” (The Regents of the University of California, priority 2016, dated 2020).

SMILES strings stand for the structures. Structures can show the parent of a compound that is named as a salt. Where two headings read alike, the source gives them in different places.

Series [1] deals with Mat Tek Epiderm FT human skin equivalent tissues. As to conditions: for Dose-normalized skin irritation potential, fold lower than 0.1 M PFB EtOH formulation: interleukin-1α release divided by applied dose, neat melt, FIG. 8A; for skin irritation potential normalized to delivered dose in acceptor, fold lower than 0.1 M PFB EtOH formulation: interleukin-1α release divided by delivered dose in acceptor compartment, FIG. 8B. As to the method:
Evaluation was conducted using human skin equivalent tissues (Epiderm™) with a human interleukin-1α ELISA kit. Interleukin-1α release has been previously established as an indicator for skin irritation and affords evaluating irritation without requiring removal of the test formulation from skin tissues, a potentially damaging process to the tissues when studying viscous formulations. 0.1 M and 0.2 M PFB EtOH formulations, positive control (5% sodium dodecyl sulfate (SDS) in PBS), negative control (PBS) and EtOH solvent control were also evaluated.
Skin irritation was assessed by measuring interleukin-1α release from Mat Tek Epiderm FT™ human skin equivalent tissues (MatTek Corporation, Ashland, Mass.). Experiments were performed according to the manufacturer's recommended protocol. Briefly, new media was added immediately before application of formulations. Formulations were applied to the surface of the tissues for 4 hours. After 4 hours, 200 μL of media was collected for interleukin-la analysis. Interleukin-la release was quantified using a Human Interleukin-la ELISA Kit (Pierce Biotechnology Inc., Rockford, Ill.) according to the manufacturer's recommended Protocol. ThermoFisher Scientific. Instructions of Human IL-1α ELISA Kit. Retrieved from https://www.thermofisher.com/order/catalog/product/EH2IL1A (2014). Absorbance of blank (0 pg/mL Interleukin-1α) was subtracted from absorbance of each sample.

A short description of series [2]: Partition coefficient n-octanol/water (log Po/w). It is filed as physicochemical. As to the method:
Lipophilicity of propranolol melts or ionic liquids, measured as partition coefficient n-octanol/water (log Po/w), varied depending on the carbon chain length of the counter species (FIG. 6C). The log Po/w of propranolol melts or ionic liquids ranged from 0.76 to 1.76, and were between −0.41 of PRL:Cl and 3.12 of PFB.
A 250 mL volume of n-octanol was shaken with 25 mL of ddH2O and left overnight to obtain n-octanol saturated with water. A 250 mL volume of ddH2O was shaken with 25 mL of n-octanol and left overnight to obtain water saturated with n-octanol. Ten milliliters of saturated n-octanol was added to each 3H-labeled propranolol melt or ionic liquid (6-10 mg) in a 20-mL scintillation vial followed by stirring until the melt or ionic liquid was dissolved completely. 10 mL saturated water was shaken with 10 mL of the 3H-labeled propranolol melt or ionic liquid solution in octanol for 1 minute, followed by 2 minutes of gentle centrifugation (1000 rpm, 74×g, Allegra X-12R centrifuge, FX6100 rotor, Beckman Coulter, Brea, Calif.) to obtain clean separation of the two layers. […] The partition coefficient n-octanol/water was calculated as the logarithm of the concentration of propranolol in octanol divided by the concentration of propranolol in water.

The conditions of series [3]: neat melt, SD of three measurements in parentheses. As to the method:
Standard deviations of three measurements are provided in parentheses.
Viscosity was measured using 1-mL samples with a LC-ARES Test Station (TA Instruments, New Castle, Del.) and a cone (diameter: 25 mm; angle: 0.1 rad). The cone rotation rate was 10 s^−1 and viscosity was measured three times per sample at 25° C. and 37° C. Differential scanning calorimetry (DSC) was performed with a Q2000 DSC with 50 position autosampler (TA Instruments, New Castle, Del.). Sample size was 9-10 mg, and was weighed in an aluminum hermetic pan. Samples were heated from room temperature to 120° C. under N2 atmosphere followed by cooling to […] and subsequent heating back to 120° C. with a ramp rate of 10° C. per minute.

Series [4] in a line: Molar conductivity (neat, in water, in n-octanol). Conditions: for molar conductivity in n-octanol: 1.32 mM PRL:C8, 1.24 mM PRL:C5, mean±SD; for molar conductivity in water in comparison to sodium chloride: 25° C. and 37° C., FIGS. 9A and 9B. Type of series: physicochemical.
The conditions of series [5]: porcine skin, 24 hours, 37° C.
Protocol: Franz diffusion cells were used to assess the skin transport of propranolol melts or ionic liquids using a previously established protocol described in Karande, P., et al., Discovery of transdermal penetration enhancers by high-throughput screening. […] Briefly, the acceptor chamber was filled with degas sed PBS or 4% bovine serum albumin in PBS and a small stir bar was added. Thawed porcine skin was clamped in place between the acceptor and donor chambers with the SC facing up. Care was taken to ensure no air bubbles resided in the acceptor chamber, and skin was stretched to minimize the presence of furrows. PFB solution in either IPM or EtOH was spiked with the 3H-labeled propranolol free base solution to a final concentration of 10 μCi/mL. Alternatively, 3H-labeled propranolol melts or ionic liquids were used as donor formulations. […] Samples from each tissue layer and acceptor solution were dissolved in Solvable (Perkin Elmer, Waltham, Mass.) overnight, and the amount of propranolol was measured using a scintillation counter and standard solution of radiolabeled donors. […] Furthermore, permeability (Kp) was calculated using the following equation, where Jss is the steady-state flux calculated as the slope of the linear portion of the plot of the cumulative amount permeated per unit area versus time, and C is propranolol concentration in donor. […]
Series [6] in a line: Solubility in organic and aqueous solvents. Type of series: physicochemical.

As for `CCCCCCCCCCCCOS(=O)(=O)[O-].[Na+]` [5% SDS in PBS, Sodium dodecyl sulfate, reference compound], in series [1] (4 hours, FIG. 14A), the “Interleukin-1α release (irritation)” value is on record as “highest amount of irritation”.

Regarding `CC(C)NCC(O)COc1cccc2ccccc12` (stereo not shown) [PFB, propranolol free base], the “partition coefficient n-octanol/water (log Po/w)” value in series [2] was 3.12.

With `CC(C)NCC(O)COc1cccc2ccccc12.CCCCCOC(=O)CC(C(=O)OCCCCC)S(=O)(=O)O` (stereo not shown) [PRL:C5, propranolol diamyl sulfosuccinate], the results for the “Propranolol Melt Viscosity” value in series [3] (25° C.) and in series [3] (37° C.) were 59.5 (1.6) Pa s and 14.7 (0.2) Pa s, respectively. The “Dose-normalized skin irritation potential, fold lower than 0.1 M PFB EtOH formulation” value in series [1] (4 hours) was 1.7 fold. Moreover, the “skin irritation potential normalized to delivered dose in acceptor, fold lower than 0.1 M PFB EtOH formulation” value in series [1] stood at 3.7 fold. Further, the results for the “molar conductivity in n-octanol” value in series [4] (25° C.) and in series [4] (37° C.) were 0.35±0.01 S cm^2/mol and 0.40±0.01 S cm^2/mol, respectively. Further, the “molar conductivity in water in comparison to sodium chloride” value in series [4] (water) is recorded as “much lower molar conductivity”.

Take `CC(C)NCC(O)COc1cccc2ccccc12.CCCCCCOC(=O)CC(C(=O)OCCCCCC)S(=O)(=O)O` (stereo not shown) [PRL:C6, propranolol dihexyl sulfosuccinate]: the “Propranolol Melt Viscosity” value is recorded as 1889.4 (325.2) Pa s in series [3] (25° C.) and 180.9 (10.8) Pa s in series [3] (37° C.).

For `CC(C)NCC(O)COc1cccc2ccccc12.CCCCC(CC)COC(=O)CC(C(=O)OCC(CC)CCCC)S(=O)(=O)O` (stereo not shown) [PRL:C8, propranolol dioctyl sulfosuccinate], the “Propranolol Melt Viscosity” value in series [3] (25° C.) is reported as 70.4 (0.9) Pa s; in series [3] (37° C.), 16.9 (0.1) Pa s. Further, the “difference in skin irritation potential between PRL:C8 and PRL:C5” value in series [1] (dose-normalized, FIGS. 8A and 8B) is reported as around 10 fold. The “Dose-normalized skin irritation potential, fold lower than 0.1 M PFB EtOH formulation” value in series [1] (4 hours) was 11 fold. In addition, the “skin irritation potential normalized to delivered dose in acceptor, fold lower than 0.1 M PFB EtOH formulation” value in series [1] is listed as 40 fold. Also, in series [5], the “amount of propranolol delivered into skin layers and acceptor” value is “delivery enhancement into each layer”. The “skin permeability (flux normalized by applied dose)” value in series [5] is given as “highest permeability among analog melts or ionic liquids”. Also, the “molar conductivity in n-octanol” value in series [4] (25° C.) came to 0.49±0.01 S cm^2/mol; in series [4] (37° C.), 0.51±0.01 S cm^2/mol. Besides, in series [4] (water), the “molar conductivity in water in comparison to sodium chloride” value is “much lower molar conductivity”. In addition, the “molar conductivity in water, fold lower than PRL:C5” value in series [4] (water, 37° C., concentrations >1 mM) is reported as around 10 fold.

Turning to `CC(C)NCC(O)COc1cccc2ccccc12` (stereo not shown) [PRL:Cl, propranolol hydrochloride], the solubility in series [6] (methanol, organic solvent or mixture, read-out: solubility in methanol) was 510 mM; in series [6] (water, read-out: solubility in water), 170 mM. Further, the “partition coefficient n-octanol/water (log Po/w)” value in series [2] is on record as −0.41.
